The source of these data is patent US9221763B2, “Process for preparing biphenyl imidazole compounds” (Theravance Biopharma R&D IP, LLC, priority 2009, dated 2015).

Molecules are shown by their SMILES.

Data set [1] can be described thus: Differential scanning calorimetry (DSC) thermal analysis. The data set is classed as physicochemical. Particulars: crystalline solid; linear heating ramp of 10° C./min from 22° C. to 250° C. On the procedure:
Differential scanning calorimetry (DSC) was performed using a TA Instruments Model Q-100 module with a Thermal Analyst controller. Data were collected and analyzed using TA Instruments Thermal Solutions software. A 2.05 mg sample of the crystalline compound of Example 1 was accurately weighed into a covered aluminum pan. After a 5 minute isothermal equilibration period at 22° C., the sample was heated using a linear heating ramp of 10° C./min from 22° C. to 250° C.
A 1.12 mg sample of the crystalline compound of Example 2 was similarly evaluated.
A general note: DSC measures the heat that a sample takes up or gives off during a temperature scan.

A short description of data set [2]: Thermogravimetric analysis (TGA). The data set is classed as physicochemical. Particulars: crystalline solid; from room temperature to 150.0° C.

`CCOc1nc(CC)c(CN)n1Cc1ccc(-c2ccccc2C(=O)OC(C)(C)C)cc1F` [Example 1, 4′-(5-aminomethyl-2-ethoxy-4-ethylimidazol-1-ylmethyl)-3′-fluorobiphenyl-2-carboxylic acid t-butyl ester]: in data set [1], the “thermal stability: no thermal decomposition below (DSC thermograph)” value was not below 150.0 °C. For the same compound, the “loss of weight (residual moisture or solvent), TGA trace” value in data set [2] was less than 0.5%. Consider `CCOc1nc(CC)c(CNC(=O)[C@H](CC(C)C)SC(C)=O)n1Cc1ccc(-c2ccccc2C(=O)O)cc1F` [Example 2, 4′-{5-[((S)-2-acetylsulfanyl-4-methylpentanoylamino)methyl]-2-ethoxy-4-ethylimidazol-1-ylmethyl}-3′-fluorobiphenyl-2-carboxylic acid], for which, in data set [1], the “thermal stability: no thermal decomposition below (DSC thermograph)” value is not below 150.0 °C.
